Experimental data as given in ChEMBL document CHEMBL5257097, “An Isomer of Galidesivir That Potently Inhibits Influenza Viruses and Members of the Bunyavirales Order” (ACS Med Chem Lett, 2023).

Tests used:
dengue virus type 2 [1] = assay: Antiviral activity against DENV-2 infected in human Huh-7 cells assessed as reduction in virus-induced cytopathic effect measured after 15 to 30 mins by visual analysis; type: functional, organism-based
dengue virus type 2 [2] = assay: Antiviral activity against DENV-2 infected in human Huh-7 cells assessed as reduction in virus-induced cytopathic effect measured after 15 to 30 mins by neutral red based analysis; type: functional, organism-based
Huh-7 [3] = assay: Cytotoxicity against human Huh-7 cells infected with DENV-2 assessed as reduction in cell viability by visual analysis; type: functional
Huh-7 [4] = assay: Cytotoxicity against human Huh-7 cells infected with DENV-2 assessed as reduction in cell viability by neutral red dye based assay; type: functional
[5] = Selectivity index, ratio of CC50 for cytotoxicity against human Huh-7 cells infected with DENV-2 assessed as reduction in cell viability by visual analysis to EC50 for antiviral activity against DENV-2 infected in human Huh-7 cells assessed as reduction in virus-induced cytopathic effect by visual analysis; type: toxicity, cell-based; settings: read-out: Ratio CC50/EC50
[6] = Selectivity index, ratio of CC50 for cytotoxicity against human Huh-7 cells infected with DENV-2 assessed as reduction in cell viability by neutral red analysis to EC50 for antiviral activity against DENV-2 infected in human Huh-7 cells assessed as reduction in virus-induced cytopathic effect by neutral red analysis; type: toxicity, cell-based; settings: read-out: Ratio CC50/EC50
Yellow fever virus [7] = assay: Antiviral activity against Yellow fever virus infected in human Huh-7 cells assessed as reduction in virus-induced cytopathic effect measured after 15 to 30 mins by visual analysis; type: functional, organism-based; settings: Yellow fever virus, Huh-7; read-out: EC50
Yellow fever virus [8] = assay: Antiviral activity against Yellow fever virus infected in human Huh-7 cells assessed as reduction in virus-induced cytopathic effect measured after 15 to 30 mins by neutral red based analysis; type: functional, organism-based
Huh-7 [9] = assay: Cytotoxicity against human Huh-7 cells infected with Yellow fever virus assessed as reduction in cell viability by neutral red dye based assay; type: functional
Huh-7 [10] = assay: Cytotoxicity against human Huh-7 cells infected with Yellow fever virus assessed as reduction in cell viability by visual assay; type: functional
[11] = Selectivity index, ratio of CC50 for cytotoxicity against human Huh-7 cells infected with Yellow fever virus assessed as reduction in cell viability by visual analysis to EC50 for antiviral activity against Yellow fever virus infected in human Huh-7 cells assessed as reduction in virus-induced cytopathic effect by visual analysis; type: toxicity, cell-based; settings: read-out: Ratio CC50/EC50
[12] = Selectivity index, ratio of CC50 for cytotoxicity against human Huh-7 cells infected with Yellow fever virus assessed as reduction in cell viability by neutral red dye based assay to EC50 for antiviral activity against Yellow fever virus infected in human Huh-7 cells assessed as reduction in virus-induced cytopathic effect by neutral red based analysis; type: toxicity; settings: read-out: Ratio CC50/EC50
Zika virus [13] = assay: Antiviral activity against Zika virus infected in African green monkey Vero 76 cells assessed as reduction in virus-induced cytopathic effect measured after 15 to 30 mins by visual analysis; type: functional, organism-based
Zika virus [14] = assay: Antiviral activity against Zika virus infected in African green monkey Vero 76 cells assessed as reduction in virus-induced cytopathic effect measured after 15 to 30 mins by neutral red based spectrophotometric analysis; type: functional, organism-based
[15] = Cytotoxicity against African green monkey Vero 76 cells infected with Zika virus assessed as reduction in cell viability by visual analysis; type: toxicity, cell-based; settings: chlorocebus sabaeus
[16] = Cytotoxicity against African green monkey Vero 76 cells infected with Zika virus assessed as reduction in cell viability by neutral red dye based assay; type: toxicity; settings: chlorocebus sabaeus
[17] = Selectivity index, ratio of CC50 for cytotoxicity against African green monkey Vero 76 infected with Zika virus assessed as reduction in cell viability by visual analysis to EC50 for antiviral activity against Zika virus infected in African green monkey Vero 76 cells assessed as reduction in virus-induced cytopathic effect by visual analysis; type: toxicity, cell-based; settings: Vero 76 cells infected with Zika virus, read-out: Ratio CC50/EC50
[18] = Selectivity index, ratio of CC50 for cytotoxicity against African green monkey Vero 76 cells infected with Zika virus assessed as reduction in cell viability by neutral red dye based analysis to EC50 for antiviral activity against Zika virus infected in African green monkey Vero 76 cells assessed as reduction in virus-induced cytopathic effect by neutral red based spectrophotometric analysis; type: toxicity; settings: read-out: Ratio CC50/EC50
Influenza A virus [19] = assay: Antiviral activity against Influenza A virus H1N1 infected in dog MDCK cells assessed as reduction in virus-induced cytopathic effect measured after 15 to 30 mins by visual analysis; type: functional, organism-based
Influenza A virus [20] = assay: Antiviral activity against Influenza A virus H1N1 infected in dog MDCK cells assessed as reduction in virus-induced cytopathic effect measured after 15 to 30 mins by neutral red based analysis; type: functional, organism-based
[21] = Cytotoxicity against dog MDCK cells infected with Influenza A virus H1N1 assessed as reduction in cell viability by neutral red dye based assay; type: toxicity, Canis lupus familiaris
[22] = Selectivity index, ratio of CC50 for cytotoxicity against dog MDCK cells infected with Influenza A virus H1N1 assessed as reduction in cell viability by visual analysis to EC50 for antiviral activity against Influenza A virus H1N1 infected in dog MDCK cells assessed as reduction in virus-induced cytopathic effect by visual analysis; type: toxicity, cell-based; settings: read-out: Ratio CC50/EC50
[23] = Selectivity index, ratio of CC50 for cytotoxicity against dog MDCK cells infected with Influenza A virus H1N1 assessed as reduction in cell viability by neutral red dye based analysis to EC50 for antiviral activity against Influenza A virus H1N1 infected in dog MDCK cells assessed as reduction in virus-induced cytopathic effect by neutral red dye based analysis; type: toxicity; settings: read-out: Ratio CC50/EC50
[24] = system: Middle East respiratory syndrome-related coronavirus; assay: Antiviral activity against MERS-CoV infected in African green monkey Vero 76 cells assessed as reduction in virus-induced cytopathic effect measured after 15 to 30 mins by visual analysis; type: functional, organism-based
[25] = system: Middle East respiratory syndrome-related coronavirus; assay: Antiviral activity against MERS-CoV infected in African green monkey Vero 76 cells assessed as reduction in virus-induced cytopathic effect measured after 15 to 30 mins by neutral red dye based analysis; type: functional, organism-based
[26] = Cytotoxicity against African green monkey Vero 76 cells infected with MERS-CoV assessed as reduction in cell viability by visual analysis; type: toxicity, cell-based; settings: chlorocebus sabaeus
[27] = Cytotoxicity against African green monkey Vero 76 cells infected with MERS-CoV assessed as reduction in cell viability by neutral red dye based analysis; type: toxicity; settings: chlorocebus sabaeus
Rift Valley fever virus [28] = assay: Antiviral activity against Rift valley fever virus infected in African green monkey Vero 76 cells assessed as reduction in virus-induced cytopathic effect measured after 15 to 30 mins by visual analysis; type: functional, organism-based
[29] = Cytotoxicity against African green monkey Vero 76 cells infected with Rift valley fever virus assessed as reduction in cell viability by visual analysis; type: toxicity, cell-based; settings: chlorocebus sabaeus
Rift Valley fever virus [30] = assay: Antiviral activity against Rift valley fever virus infected in African green monkey Vero 76 cells assessed as reduction in virus-induced cytopathic effect measured after 15 to 30 mins by neutral red dye based analysis; type: functional, organism-based
[31] = Cytotoxicity against African green monkey Vero 76 cells infected with Rift valley fever virus assessed as reduction in cell viability by neutral red dye based analysis; type: toxicity; settings: chlorocebus sabaeus
[32] = Selectivity index, ratio of CC50 for cytotoxicity against African green monkey Vero 76 cells infected with Rift valley fever virus assessed as reduction in cell viability by visual analysis to EC50 for antiviral activity against Rift valley fever virus infected in African green monkey Vero 76 cells assessed as reduction in virus-induced cytopathic effect by visual analysis; type: toxicity, cell-based; settings: read-out: Ratio CC50/EC50
[33] = Selectivity index, ratio of CC50 for cytotoxicity against African green monkey Vero 76 cells infected with Rift valley fever virus assessed as reduction in cell viability by neutral red dye based analysis to EC50 for antiviral activity against Rift valley fever virus infected in African green monkey Vero 76 cells assessed as reduction in virus-induced cytopathic effect by neutral red dye based analysis; type: toxicity; settings: read-out: Ratio CC50/EC50

Compound	EC50 (dengue virus type 2 [1]) [µM]	EC50 (dengue virus type 2 [2]) [µM]	CC50 (Huh-7 [3]) [µM]	CC50 (Huh-7 [4]) [µM]	selectivity ratio [5]	selectivity ratio [6]	EC50 (Yellow fever virus [7]) [µM]	EC50 (Yellow fever virus [8]) [µM]	CC50 (Huh-7 [9]) [µM]	CC50 (Huh-7 [10]) [µM]	selectivity ratio [11]	selectivity ratio [12]	EC50 (Zika virus [13]) [µM]	EC50 (Zika virus [14]) [µM]	CC50 [15] [µM]	CC50 [16] [µM]	selectivity ratio [17]	selectivity ratio [18]	EC50 (Influenza A virus [19]) [µM]	EC50 (Influenza A virus [20]) [µM]	further results
Nc1ncnc2c([C@@H]3N[C@H](CO)[C@@H](O)[C@H]3O)c[nH]c12 [GALIDESIVIR]	13	16	> 100	> 100	> 7.7	> 100	> 100	18	> 100	> 100	> 3.6	> 5.6	12	33	> 100	> 100	> 8.3	> 3	3.6	3.3	CC50 [21]: > 100 µM; selectivity ratio [22]: > 28; selectivity ratio [23]: > 30; EC50 [24]: > 100 µM; EC50 [25]: > 100 µM; CC50 [26]: > 100 µM; CC50 [27]: > 100 µM; EC50 (Rift Valley fever virus [28]): 23 µM; CC50 [29]: > 100 µM; EC50 (Rift Valley fever virus [30]): 27 µM; CC50 [31]: > 100 µM; selectivity ratio [32]: > 4.3; selectivity ratio [33]: > 3.7
Nc1ncnn2c([C@@H]3N[C@H](CO)[C@@H](O)[C@H]3O)ccc12	0.32	0.38	> 100	2.9	10	2.9	0.37	0.5	3.2	3.2	8.6	8.6	0.32	0.38	6.1	4.4	19	12	0.42	0.28	CC50 [21]: 3 µM; selectivity ratio [22]: 57; selectivity ratio [23]: 23; EC50 [24]: 0.32 µM; EC50 [25]: 32 µM; CC50 [26]: 10 µM; CC50 [27]: 4.4 µM; EC50 (Rift Valley fever virus [28]): < 0.1 µM; CC50 [29]: 10 µM; EC50 (Rift Valley fever virus [30]): < 0.1 µM; CC50 [31]: 8.9 µM; selectivity ratio [32]: > 100; selectivity ratio [33]: > 89
